In paper PMC5047949, “Kinetic analysis of the translocator protein positron emission tomography ligand [^18F]GE-180 in the human brain” (European Journal of Nuclear Medicine and Molecular Imaging, 2016):

Assay: Arterial whole-blood and plasma activity, and parent fraction by HPLC
Format: in vivo, human
Description: Arterial blood activity was measured every second for the first 15 min of the 90-min scan using an automated blood sampling system (ABSS Allog, Mariefred, Sweden) connected to the subject via a 1.5 m × 1.0 mm diameter polytetrafluoroethylene line (blood withdrawal rate 2.5 ml/min). In addition, blood samples (10 mL) were collected manually from the radial artery at 0, 5, 10, 15, 30, 50, 70 and 90 min to assay whole-blood and plasma activity. Plasma was obtained by centrifugation for 3 min at 1,800 g. Activity in whole blood and plasma was measured in a CAPRAC-t well counter over 10 – 60 s. The first 15 min of continuous whole-blood activity was combined with the activity from discrete samples to generate the whole-blood activity curve for use in data modelling. The continuous plasma-to-blood ratio was estimated using a constant model and a total plasma activity curve was obtained by correcting the whole-blood curve for this partition between plasma and blood.
The parent fraction of [^18F]GE-180 was measured by high-performance liquid chromatography (Agilent 1,100 and 1,260 series) of discrete plasma samples (3.5 mL). The parent fraction was fitted to a single exponential plus a constant model. The total plasma activity was multiplied by this parent fraction and then smoothed post peak by fitting to a triexponential function to generate an arterial parent plasma input function. A delay correction of up to +30 s was applied to the input function prior to fitting the kinetic modelling. This was performed to account for delay in the 1.5-m tube (28.3 s) and delay between the radial artery and the brain.

CCN(CC)C(=O)[C@H]1CCCc2c1c1c(OC)cccc1n2CC[18F] [[^18F]GE-180]
intact parent tracer remaining (90 min, plasma): 70% | time of peak concentration in plasma (arterial plasma after i.v. bolus): about 45 s | plasma-to-blood ratio (constant across subjects): about 1.69 | polar radioactive metabolites (three) in plasma (over the 90 min scanning window): < 10 % of parent compound
